Tested on: MK-801-induced PPI disruption
Experiment: Prepulse inhibition of startle with disruption by MK-801
Assay type: in vivo, Wistar rats
Details: pretreatment vehicle, treatment MK-801 0.2 mg/kg i.p., mean ± SEM
Text: Prepulse inhibition (PPI) is a cross-species phenomenon (i.e., it is present in mammals ranging from mice to humans), yet it is relatively impaired among schizophrenic patients. The PPI procedure is used to assess the subject's ability to “gate” or filter environmental information. In the acoustic (startle model) of sensorimotor gating a weak acoustic stimulus (prepulse) decrease the reflexive flinching response (startle) produced by a second, more intense, stimulus (the pulse). Drugs like dizocilpine (MK-801) or amphetamine disrupt PPI and represent an animal model of schizophrenia; antipsychotic drugs are able to prevent PPI deficit. The test is quite useful to screen potential antipsychotic drugs.
Methods: Male Wistar rats, weighing 200-300 g were used. Apparatus: All startle and PPI testing has been performed in four startle chambers. Each ventilated illuminated and sound proof chamber contained a clear non-restrictive Plexiglas cylinder resting on a platform. A high-frequency loudspeaker inside the chamber produced both a continuous background noise of 70 dB and the various acoustic stimuli. Vibrations of the Plexiglas cylinder caused by the whole-body startle response of the animal were transduced into analogue signals by a piezoelectric unit attached to the platform. These signals were then digitized and stored by a computer. Sixty-five readings were taken at 1-ms intervals starting at stimulus onset, and the average amplitude was used to determine the acoustic startle response. Sound levels is given in dB.
Prepulse inhibition session: After 5 min of habituation (background white noise, 70 dB), two types of acoustic stimuli were used: acoustic stimulus alone (120 dB, 40 ms) or the stimulus proceeded by a prepulse (76, 79, 82 dB, 40 ms) applied 100 ms before the stimulus. During each experimental session 20 trials of each type were presented with interstimulus interval of 20 s. The amplitudes were averaged for each individual animal, separately for both types of trials (stimulus alone or stimulus preceded by the prepulse). The degree of prepulse inhibition was shown as a percentage score (% PPI) calculated as […] a difference between the amplitude of the pulse-alone (P) and the amplitude of the prepulse+pulse trials (PP+P), divided by the amplitude of the pulse-alone trials and multiplied by 100. […] Substances and treatments: MK-801 0.2 mg/kg was dissolved in saline and was given i.p. In each experiment, […] were assigned to receive either compounds of the disclosure or vehicle and were tested in the PPI session using a between-subjects design. The order of drug treatment for the first experiment was test-compound, followed by MK-801; for the second experiment rats received test-compound and then amphetamine. Statistical Analysis: Multiple ANOVA was conducted followed by Dunnett's post hoc test.

With `C[C@]12N[C@H](Cc3ccccc31)c1ccccc12` [MK-801, reference compound] the Percentage of inhibition (% PPI) was 9.07 ± 0.81 %, the Acoustic tone alone (startle amplitude) was 40.50 ± 1.96 and the “Startle amplitude on prepulse + pulse trials” value (startle amplitude) was 37.00 ± 2.11.

From patent publication US8445539B2, “Alpha-aminoamide derivatives useful in the treatment of psychiatric disorders” (priority 2007, dated 2013)
